Holding throughout (assay type): cell-based, mouse
In one experiment the test system is Tcf/Lef. In words: Tcf/Lef luciferase reporter assay of Wnt activity in inner ear organoids. The settings on record: addition of pargyline to CHIR99021 or LYCH; luciferase at 48 hours. As for the experimental part:
Luciferase assay. Wnt activity was assessed in inner ear organoids using lentiviral vector expressing Firefly luciferase under the control of 7 Tcf binding sites (Fuerer and Nusse, 2010). Cochlear progenitor cells were dissected from sensory epithelia of wild-type neonatal mice using the established protocol described above (McLean et al., 2017). Dissociated cells were resuspended in proliferation media contain poly brene (Sigma) and lentivirus reporter (7TFC, Addgene #24307) and plated in 96 well plate coated with matrigel for 12-16 hours, [adapted from (Maru et al., 2016)]. The following day, media (containing dead cells and virus) was aspirated and a top layer of matrigel applied to the adherent cells and allowed to solidify, followed by addition of proliferation media. Media was changed every 2 days for 10 days as organoids developed. At day 10, media was changed to differentiation conditions with removal of growth factors and treatment with drug combinations described above. […] Luciferase was measured at 48 hours and normalized to total protein concentration.
Active canonical Wnt signaling is facilitated by the nuclear translocation of β-catenin, which binds with transcription factors of the Tcf/Lef family to activate transcription. […] We also analyzed Wnt activity in the treated cells using a Tcf/Lef reporter assay.
In general terms: Reporter assays use an easily measured gene product as a stand-in for the process of interest.

Experiment [1] has as its system Lgr5-expressing cochlear progenitors cells (LCPs). In words: Proliferation of Lgr5+ cochlear progenitors (LCPs) in organoid culture. Particulars: first 10 days in culture, Lgr5-nGFP mice cells, combined with CHIR99021. How it is done:
Isolation and expansion of inner ear Lgr5+ cells. A recently published protocol was used to derive organoids from inner ear stem cells [also referred to as Lgr5+ cochlear progenitors (LCPs) (McLean et al., 2017). Briefly, the organ of Corti was dissected from neonatal mice (postnatal days 2-5) in Hank's balanced salt solution and treated with Cell Recovery Solution (Corning) for 1 hour. The cochlear epithelium was then peeled from the underlying mesenchyme, collected and treated with TrypleE for 20 minutes at 37° C. The single cells were mechanically triturated, filtered ([…] cell strainer) and suspended in a Matrigel (Corning) dome for 3D culture. The cells were seeded in a 24-well plate, specifically at one cochlea per well of a 24-well plate.
For the drug screening experiments, the expanded cells were passaged into a 96 well plate to test varying drug combinations. All experiments were done in triplicate at minimum. Atoh1-nGFP cells were quantified after 10 days in culture. The cell colonies were incubated in Cell Recovery Solution for 1 hour and dissociated into single cells using TrypleE. The total cell number and percentage of GFP+ cells were quantified using fluorescence activated cell sorting (FACS).
We screened a collection of Lsd1 inhibitors over the first 10 days in culture (FIGS. 9A and 9B) to examine their effect on proliferation of LCPs (FIGS. 9C and 9D). […]

The next experiment concerns Myo7a. In words: qRT-PCR of Myo7a in differentiated LCP organoids. Particulars: D10, pargyline-treated cells relative to standard treatment, p<0.05. How it is done:
Differentiation of LCPs into a hair cell lineage. […] To analyze the effect of the Lsd1 inhibitors, the LCPs were treated with the small molecules combined with a differentiation drug cocktail, pargyline and CHIR99021 or CHIR99021 at 1, 2, 4, and 10 days (McLean et al., 2017).
RNA extraction and PCR. For the LCPs, the organoids were treated with Cell Recovery Solution for at 1 hour and TrypleE for 20 minutes, then frozen in RLT buffer. RNA extractions were performed using the RNeasy Micro Kit (QIAGEN) and cDNA generated using ImProm-II Reverse Transcription Kit (Promega). TaqMan Real-Time PCR was performed in triplicates using the TaqMan Gene Expression Master Mix (ThermoFisher Scientific) on a StepOne Real-Time PCR machine (ThermoFisher Scientific). Ordinary One-way Anova was used to assess statistical significance. A minimum of three biologically distinct samples were analyzed for each condition.
We next tested the effect of Lsd1 inhibition on hair cell differentiation. In this assay, after the cells were expanded into organoids during the initial proliferation phase, differentiation was initiated using the combination of CHIR99021 and LY411575 and allowed to progress for 10 days (DO to D10). Organoids were monitored for the development of hair cells using FACS and qRT-PCR. […] Conversely, Myo7a expression increases throughout development and is a key marker of mature hair cells. […]

Regarding `C#CCN(C)Cc1ccccc1` [pargyline, N-Methyl-N-propargylbenzylamine], the Tcf/Lef activity entry in the experiment on Tcf/Lef is “no significant difference”. In addition, the “proliferation of Lgr5 cells (LCP cell division)” value in experiment [1] is recorded as 26%. For the same compound, the Myo7a expression entry in the experiment on Myo7a is on record as “significantly upregulated”.

Source of the values: patent US20240245702A1, “Inhibition of Lysine Demethylase 1 (Lsd1) Induces Differentiation of Hair Cells” (Massachusetts Eye and Ear Infirmary, priority 2018, published 2024).
